Literature values, collected in patent US20120252687A1, “Scoring Function Penalizing Compounds Which Desolvate Charged Protein Side Chains Structure” (priority 2011, published 2012).

Experiments:
Cdk2 = Cdk2 (Homo sapiens, UniProt P24941); settings: PDB complex
Jnk = Jnk (Homo sapiens, UniProt P53779); settings: PDB complex
Sequence of Jnk (P53779 whole entry): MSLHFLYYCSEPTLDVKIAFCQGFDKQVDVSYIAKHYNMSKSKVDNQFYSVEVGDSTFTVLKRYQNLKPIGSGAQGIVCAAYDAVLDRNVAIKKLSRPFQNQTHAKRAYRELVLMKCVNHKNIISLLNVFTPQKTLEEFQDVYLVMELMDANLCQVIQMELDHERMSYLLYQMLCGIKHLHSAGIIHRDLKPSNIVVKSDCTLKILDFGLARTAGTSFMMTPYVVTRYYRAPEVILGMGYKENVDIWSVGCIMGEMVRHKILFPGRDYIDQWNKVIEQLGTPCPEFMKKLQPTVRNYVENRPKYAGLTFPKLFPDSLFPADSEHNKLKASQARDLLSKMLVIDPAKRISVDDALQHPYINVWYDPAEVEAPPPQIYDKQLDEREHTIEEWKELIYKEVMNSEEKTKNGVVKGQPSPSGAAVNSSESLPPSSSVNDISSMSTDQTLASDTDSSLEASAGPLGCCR

| Structure (SMILES) | dG (experimental free energy of binding) (Cdk2) | dG (experimental free energy of binding) (Jnk) |
| --- | --- | --- |
| NS(=O)(=O)c1ccc(Nc2cn3cc(C(=O)c4c(Cl)cccc4Cl)ccc3n2)cc1 [Cdk2_1ykr] | −8.5 | – |
| N#Cc1c(NC(=O)c2cccc3ccccc23)sc2c1CCN(C(=O)CCN1CCCCC1)C2 [Jnk_2o0u] | – | −7.5 |
